Data on 1 molecule can be found in US20230218547A1, “CHEMICAL COMPOSITION” (The University of Liverpool, priority 2016, published 2023).

The conditions of series [1]: background statement; cited from earlier work.
Series [2] is described as follows: Atovaquone release by Rapid Equilibrium Dialysis (RED) in Simulated Interstitial Fluid. The format is physicochemical. Particulars: initial 6-hour period, SIF, 1 mg/mL atovaquone, 37° C. The procedure: The release rate of atovaquone from solid compositions thereof in accordance with the invention, alongside an equivalent unformulated preparation of atovaquone, was assessed using Rapid Equilibrium Dialysis (RED) (ThermoFisher Scientific). The eleven ‘hit’ formulations were dispersed in Simulated Interstitial Fluid (SIF) and subsequently diluted to 1 mg/mL of atovaquone. The SIF consisted of 35 mg/mL bovine serum albumin (BSA) and 2 mg/mL γ-Globulin derived from bovine blood and dissolved in distilled water. Unformulated atovaquone was initially dissolved in DMSO prior to dilution with SIF, such that the DMSO volume was <1% of the total volume. […] Following incubation, 4 mL ultima gold liquid scintillation cocktail fluid (Meridian Biotechnologies, UK) was added to each 0.1 mL sample and radioactivity was determined as disintegrations per minute (DPM) using a Perkin Elmer 3100TS scintillation counter. Data is expressed as the amount of atovaquone released and diffused across the membrane as a percentage of the starting donor amount, in triplicate, for each of the eleven hit formulations as compared to unformulated atovaquone, as shown in FIGS. 3A-3K (error bars are ±1 S.D.) and FIG. 4 (release after 24 hours) (error bars are ±1 S.D.). […]

On the set-up of series [3]: species or system mice. Particulars: mouse, in vivo. The method, then:
Mice were injected intramuscularly with 200 mg/kg of an atovaquone nanoformulation. At intervals blood was harvested (microtainer tubes, BD Biosciences), centrifuged (1300×g, 10 min, 4° C.), and plasma was collected and stored at −80° C. until use. The nanoformulations tested were ACS_ATQ_7 and ACS_ATQ_8.
The concentration of atovaquone in the plasma was assayed by UPLC-MS/MS. Briefly, acetonitrile and deuterated atovaquone internal standard were added to 25 μL of thawed plasma, followed by filtration (Captiva filtration plate, Agilent Technologies). A 5 μL aliquot was separated on a reverse phase column and atovaquone was monitored by triple-quadrupole API4000 (SCIEX, Framingham, Mass., USA) mass analyzer with electrospray ionization. The assay was validated to FDA guidelines for 250-50,000 ng/mL. Values between 250 and 77 ng/mL (the limit of detection) were interpreted conservatively.

For series [4] the following is noted: in vivo.
The conditions of series [5]: orally dosed; mice; known value; cited from earlier work.
For series [6] the following is noted: humans; known value; cited from earlier work.

Read-outs that look alike come from different tables or passages of the source.

On to `O=C1C(O)=C([C@H]2CC[C@H](c3ccc(Cl)cc3)CC2)C(=O)c2ccccc21` [atovaquone], for which, in series [1], the lipophilicity entry is “highly lipophilic”. For the same molecule, the solubility in water result in series [1] is recorded as “practically insoluble”. Further, the “Release Rate” value in series [2] (Table 3) is 0.006 h⁻¹; in series [2] (different loadings, Table 7) it was 0.0060 h⁻¹. For the same molecule, the “plasma concentration of atovaquone that correlates with successful prophylaxis” value in series [3] is recorded as more than 200 ng/mL. For the same molecule, in series [4], the “disposition of atovaquone in humans relative to mice” value is “approximately eight”. The plasma half-life was 9 h in series [5] and 70 h in series [6].
